Patent publication US20080038321A1, “PROPHYLACTIC/THERAPEUTIC COMPOSITIONS FOR LIVER DISEASES” (Ajinomoto Co., Inc., priority 2004, published 2008)

Key:
[1] = tested on: G6Pase; assay: Liver gene expression in high-fat diet GK rats after 6-week administration (quantitative PCR): G6Pase; format: in vivo, rat
From the text: (§1) The mRNA levels are expressed while defining the level in the SD group as 1.00. <Primer Sequence>

[2] = tested on: G6Pase; assay: Liver gene expression in GK rats after 8 weeks L-Asp diet (quantitative PCR): G6Pase; format: in vivo, rat; conditions: 3% L-Asp diet (3AS), CON group = 1.00
Protocol: (§3) Specifically, L-Asp as mixed in a diet was administered to GK rats over a long time, and the effect of the administration on gene expression in the liver and disease state was determined.
(§4) Male 6-week-old GK rats were purchased, pre-fed for one week, grouped into the following groups each including five rats, the diet was replaced with experimental diets, and the rats were fed with the experimental diets for eight weeks.
On week eight of administration, the liver was extirpated after eighteen-hour fasting, RNAs were extracted, and the gene expressions were determined through quantitative PCR and compared.

[3] = tested on: TRB3; assay: Suppressive effects of amino acids on TRB3 expression in cultured hepatocytes (Fao cells, quantitative PCR); format: cell-based, rat; conditions: other experiments; 0.03 mM to 0.3 mM
[4] = tested on: glucose-6-phosphatase (G6Pase); assay: Effect of L-Asp on G6Pase expression suppressive action of insulin in Fao cells (quantitative PCR); format: cell-based, rat; conditions: for G6Pase expression level: 6 h, -Asp RPMI without insulin = 1.00; for G6Pase expression level (value in parentheses): -Asp RPMI at same insulin concentration = 1.00
Protocol: To verify whether an amino acid showing a TRB3 expression suppressive action actually increases the insulin action on hepatocytes, how L-Asp acts on glucose-6-phosphatase (G6Pase) expression suppressive action of insulin in rat hepatic cancer-derived Fao cells was studied.
Fao cells were inoculated on a 24-well plate and cultured overnight. Thereafter, 0, 0.3, and 1.0 mM L-Asp and 0, 10^−10, 10^−8, and 10^−6 M insulin were added respectively to a basal medium corresponding to RPMI 1640 medium containing no glucose but 0.1% BSA, except with L-Asp being removed therefrom, and the cells were further cultivated for six hours. RNAs were extracted from the cultured cells, and the expression levels of G6Pase were determined through quantitative PCR.
The G6Pase expression level in −Asp RPMI medium added with no insulin is defined as 1.00.
The values in the parentheses are values while defining the G6Pase expression levels in −Asp RPMI medium at respective insulin concentrations as 1.00, respectively.

[5] = tested on: PPAR-alpha; assay: Liver gene expression in high-fat diet GK rats after 6-week administration (quantitative PCR): PPAR-alpha; format: in vivo, rat
From the text: as §1

[6] = tested on: CPT-1; assay: Liver gene expression in high-fat diet GK rats after 6-week administration (quantitative PCR): CPT-1; format: in vivo, rat
From the text: as §1

[7] = tested on: TRB3; assay: TRB3 mRNA in Fao cells with L-Asp, L-Ala or both (quantitative PCR); format: cell-based, rat; conditions: 3 h, L-Asp 0.05 mM, L-Ala 0.03 mM or both
Protocol: (§2) Whether the suppressive effect of L-Asp on TRB3 expression in rat hepatocyte-derived Fao cells is increased by adding L-Ala as another amino acid was studied. Whether the expression of HNF-4α is increased was also studied. Fao cells were inoculated on a 24-well plate to an amount of 2×10^5 cells/well, and the cells were cultivated in a 10% fetal bovine serum-containing RPMI 1640 medium (supplied from Nacalai Tesque, Inc.; Code No. 30264-85) at 37° C. in an atmosphere of 5% CO2 overnight. On the following day, the medium was replaced with one of a 10% fetal bovine serum-containing RPMI medium from which all amino acids had been removed (minus amino acid medium; Table 1) and media corresponding to the minus amino acid medium, except with L-Asp (concentration: 0.05 mM), L-Ala (concentration: 0.03 mM), or both added, and the cells were further cultivated at 37° C. in 2.5% CO2 atmosphere for three hours. RNAs were extracted from the cultured cells, and the TRB3 mRNA levels and the HNF-4α mRNA levels were determined through quantitative polymerase chain reaction (PCR) (Table 10).

[8] = tested on: TRB3; assay: Suppressive effects of amino acids on TRB3 expression in cultured hepatocytes (Fao cells, quantitative PCR); format: cell-based, rat; conditions: 3 h, minus amino acid medium plus one L-amino acid 1 mM (or standard medium), mRNA, minus amino acid medium = 1.00, n = 4, mean ± SD
Protocol: Suppressive effects of twenty-two amino acids on TRB3 expression in rat hepatic cancer-derived Fao cells were examined.
The standard medium is a medium corresponding to the minus amino acid medium, except for further containing amino acids listed in Table 2.
RNAs were extracted from the cultured cells, the expression levels of TRB3 gene were determined through quantitative polymerase chain reaction (PCR), and the suppressive effects of amino acids on TRB3 expression were determined and compared with data of TRB3 expression induced upon amino acid starvation. The gene expression was corrected with reference to β-actin expression level. The correction was carried out in the same manner in the after-mentioned genes.
The data were corrected and expressed while taking the average of TRB3 mRNA levels after three-hour cultivation in the minus amino acid medium as 1.00.

[9] = tested on: HNF-4α; assay: HNF-4α mRNA in Fao cells with L-Asp, L-Ala or both (quantitative PCR); format: cell-based, rat; conditions: 3 h, L-Asp 0.05 mM, L-Ala 0.03 mM or both
Protocol: as §2

[10] = tested on: GK rats; assay: Long-term L-Asp in diet to GK rats: fasting blood glucose and insulin; format: in vivo, rat; conditions: 3% L-Asp-containing diet (3AS), 6 weeks, n = 5, mean ± SD
Protocol: as §3, §4
CON group: administered with a control diet
3AS group: administered with a 3% L-Asp-containing diet
6AS group: administered with a 6% L-Asp-containing diet
The fasting blood glucose level is generally considered to be an index reflecting the basal insulin secretion and the insulin resistance.

[11] = tested on: GK rats fed with high-fat diets; conditions: rat, in vivo
[12] = tested on: stearoyl-Coenzyme A desaturase 1 (SCD1) gene; assay: Liver gene expression profiling in GK rats (Gene Chip Rat Genome U34A Array): SCD1; format: in vivo; conditions: 8 weeks, CON group = 1.00
Protocol: Gene expression profiling was conducted using samples containing equivalent amounts of genes in the liver of individuals in the individual groups. The gene expression profiling was carried out with the Gene Chip Rat Genome U34A Array (Affymetrix Inc.). […] This is because the two genes relate to steatogenesis.
The mRNA levels are expressed while defining the level in the CON group as 1.00.

[13] = tested on: Wistar rats fed with high-fat diets; assay: Wistar rats fed with high-fat diets: body weight and liver triglyceride; format: in vivo, rat
From the text: Pharmacological actions of L-Asp were identified using Wistar rats fed with high-fat diets.
These triglyceride contents were converted into total triglyceride contents in the entire liver.

[14] = tested on: ACO; assay: Liver gene expression in high-fat diet GK rats after 6-week administration (quantitative PCR): ACO; format: in vivo, rat
From the text: as §1

[15] = HFD + Asp, 6-week administration, HFD = 1.00 in table, n = 6, mean
[16] = L-Asp administration, 6 weeks, HFD

## N[C@@H](CC(=O)O)C(=O)O [L-Asp, L-aspartic acid]
[1]; HFD + Asp, HFD = 1.00 in table, n = 6, mean
  G6Pase mRNA level in liver: 0.52
[1]; HFD plus Asp group
  G6Pase expression relative to HFD group: 0.52 time
[2]
  G6Pase mRNA level in liver: 0.99 ± 0.15
[3]
  suppression of TRB3 expression: significantly suppresses the TRB3 expression
[4]; 0.3 mM Asp, insulin 0 M
  G6Pase expression level: 0.603
  G6Pase expression level (value in parentheses): 0.60
[4]; 0.3 mM Asp, insulin 10^-6 M
  G6Pase expression level: 0.014
  G6Pase expression level (value in parentheses): 0.60
[4]; 0.3 mM Asp, insulin 10^-8 M
  G6Pase expression level: 0.022
  G6Pase expression level (value in parentheses): 0.70
[4]; 0.3 mM Asp, insulin 10^-10 M
  G6Pase expression level: 0.100
  G6Pase expression level (value in parentheses): 0.67
[4]; 1 mM Asp, insulin 0 M
  G6Pase expression level: 0.397
  G6Pase expression level (value in parentheses): 0.40
[4]; 1 mM Asp, insulin 10^-6 M
  G6Pase expression level: 0.008
  G6Pase expression level (value in parentheses): 0.36
[4]; 1 mM Asp, insulin 10^-8 M
  G6Pase expression level: 0.016
  G6Pase expression level (value in parentheses): 0.52
[4]; 1 mM Asp, insulin 10^-10 M
  G6Pase expression level: 0.076
  G6Pase expression level (value in parentheses): 0.51
[4]; L-Asp alone, glucose starvation
  G6Pase expression suppressive action: G6Pase expression suppressive action even if used alone
[4]; L-Asp in combination with insulin
  G6Pase expression suppression: increased G6Pase expression suppression when used in combination with insulin
[5]; [15]
  PPARα mRNA level in liver: 1.34
[5]; [16]
  PPAR-alpha gene expression: 1.34 time
[6]; [15]
  CPT-1 mRNA level in liver: 1.20
[6]; [16]
  CPT-1 gene expression: 1.20 time
[7]; minus amino acid medium = 1.00
  TRB3 mRNA level: 0.54
[7]; of minus amino acid medium
  expression level of TRB3 mRNA: 54%
[8]
  TRB3 expression level: 0.724 ± 0.13
[8]; listed as aspartic acid
  TRB3 expression level: significantly suppressed TRB3 expression
[9]
  expression level of HNF-4α mRNA: 1.3 time
[9]; minus amino acid medium = 1.00
  HNF4α mRNA level: 1.30
[10]
  Fasting blood glucose level: 151 ± 4.8 mg/dL
[11]
  Body weight: 221 ± 11 g
[12]; 3% L-Asp diet (3AS)
  SCD1 mRNA level in liver: 0.78
[12]; 6% L-Asp diet (6AS)
  SCD1 mRNA level in liver: 0.71
[13]; before administration (baseline), HFD plus about 6% L-Asp, n = 6
  Body weight: 328 ± 9 g
[13]; four weeks, HFD plus Asp group, HFD group 57.6
  triglyceride content: 43.4 mg per 1 g of the liver
[13]; four weeks, HFD plus Asp group, HFD group 1047.5
  total triglyceride content in the liver: 743.4 mg
[13]; week 4, HFD plus about 6% L-Asp
  Triglyceride content in liver: 43 ± 10 mg/g
[13]; week 4, HFD plus about 6% L-Asp, n = 6
  Body weight: tended to have a decreased body weight
[13]; week 4, HFD plus about 6% L-Asp, n = 6, listed as Asp
  Body weight: 474 ± 20 g
[14]; [15]
  ACO mRNA level in liver: 1.18
[14]; [16]
  ACO gene expression: 1.18 time
